The values that follow are results of earlier work, collected in paper PMC4744679 (Drug Testing and Analysis, 2015).

For data set [1] the following is noted: rats, orally administered, 24 and 48 h after injection.
For data set [2] the following is noted: 0.5–3 h of observation.
For data set [3] the following is noted: for Primary accumulation: inner ear, brain, kidney and liver examined.
The conditions of data set [4]: murine, single intraperitoneal injection.
For data set [5] the following is noted: mature teratoma.

As for `CC(=O)[O-].CC(=O)[O-].N.NC12CC3CC(CC(C3)C1)C2.[Cl-].[Cl-].[Pt+4]` [(OC‐6‐43)‐bis (acetato) (1‐adamantylamine) amminedichloroplatinum (IV)], in data set [1], the Main accumulation organs entry is “liver, kidneys and spleen”.
`CC(C)c1cc(C(=O)[O-])c([O-])c(C(C)C)c1.NC1CCCCC1N.[Pt+2]` [Saliplatin, cis‐3,5‐diisopropylsalylic cyclohexano‐diaminoplatinum (II)]: the Primary accumulation sites result in data set [2] is “spleen, liver, and kidneys”.
Take `N.N.O=C([O-])C1(C(=O)[O-])CCC1.[Pt+2]` [carboplatin, cis‐diammine(1,1‐cyclobutanedicarboxylato)platinum (II)]: the Main deposition result is “kidney”. For the same compound, in data set [3], the “Distribution into brain and inner ear” value is “much less distributed into brain and inner ear”; the Primary accumulation entry is “kidney and liver”.
In the case of `N.N.[Cl][Pt][Cl]` [cisplatin, cis‐dichlorodiammineplatinum (II)], the Main deposition result is “kidney”. Further, in data set [4], the Main platinum accumulation entry is listed as “kidneys and, secondly, in liver”. Further, in data set [3], the Primary accumulation entry is “kidney and liver”. Also, the “Time after administration at which platinum is detected in the tissue” value in data set [5] is reported as “more than 7 years”.
